Test system: PD-L1
Assay: Inhibitory effect of PD-L1 expression by cell staining with anti-PD-L1 antibody in IFN-γ-treated THP-1 cells (flow cytometry)
Type: cell-based
Settings: Homo sapiens, IFN-γ 25 ng/mL, 24±2 hours, subMFI anti-CD274-PC7, read-out: IC50 (50% PD-L1 expression inhibition concentration)
Procedure: The inhibitory effects of each compound of Examples 1 to 6 on the PD-L1 expression were evaluated according to the following procedures.
(1) Acute monocytic leukemia cell-derived THP-1 cells were suspended in RPMI medium containing 10% FCS and 1% P/S (hereinafter, referred to as “RPMI medium”) at 5×10^5 cells/mL to obtain a cell suspension, and the cell suspension was dispensed into each well of a 6 well-plate in an amount of 3 mL. In order to activate the THP-1 cells and express PD-L1 in the cells, IFN-γ (PEPROTECH, Cat. No. 300-02-100UG, >2e+7 U/mg) was added into each well at a concentration of 25 ng/mL (>500 U/mL). 50 mmol/L of the test compound solution was diluted with the medium (usually, in the range of 0.025 mmol/L to 1 mmol/L), and the diluted solution was added into each well in an amount of 60 μL. The plate was incubated in a CO2 incubator (at 37° C. and 5% CO2) for 24±2 hours. In the control group, only DMSO was added in place of the test compound. (2) A part of the prepared cell culture liquid was collected and the number of cells therein was counted using a cell counter (BIORAD TC-20). The cell culture liquid was centrifuged at 300×g for 5 minutes and the supernatant of the cell culture liquid was removed. The cells were suspended in calcium and magnesium free phosphate buffered saline (PBS−) containing 1% bovine serum albumin (BSA) at a cell concentration of 1 to 2×10^7 cells/mL to prepare a cell suspension. (3) Each cell suspension prepared in the above step (2) were added into a 5 mL tube in an amount of 25 μL. 2 μL of 2% normal mouse serum/PBS− was added into tubes, and the tubes were gently pipetted. The tubes were then allowed to stand at room temperature for 15 minutes. (4) Anti-CD274-PC7 antibody (BECKMAN COULTER, Cat. No. A78884) or mouse IgG1-PC7 antibody (BECKMAN COULTER, 737662) as control was added in each tube in an amount of 10 μL, and the tubes were gently stirred. The tubes were then allowed to stand in the dark on an ice bath for 30 minutes. (5) Foxp3/Transcription Factor Fix/Perm Concentrate (4×) (Cat. No. TNB-1020-L050) (A solution) supplied in FOXP3/Transcription Factor Staining kit (TONBO biosciences) was diluted in Foxp3/Transcription Factor Fix/Perm Diluent (1×) (Cat. No. TNB-1022-L160) (A dilution solution) to prepare a 1×A solution. (6) The 1×A solution was added into each tube in an amount of 1 mL, and the tubes were gently pipetted and stirred. The tubes were then allowed to stand in the dark at room temperature for 30 minutes and centrifuged at 300×g for 5 minutes, and then the supernatants therein were removed. (7) 2 mL of 1% BSA/PBS− was added into each tube and the tubes were gently stirred and centrifuged at 300×g for 5 minutes, and then the supernatants therein were removed. (8) The cells therein were suspended in 0.5 mL of 1% BSA/PBS- and measured with a flow cytometer (Sony: Cell Sorter SH800) within 2 hours. The results were analyzed with a software, FlowJo (Tree Star Inc.). The mean peak fluorescence intensity (MFI) of PD-L1 and mean peak fluorescence intensity of IgG1 were calculated from histograms of the measured fluorescence intensity and number of cells, and the mean fluorescence intensity of IgG1 was subtracted from that of PD-L1 to calculate the subMFI. The experiments were performed in n=2.
The subMFI values of the control cells calculated by the FlowJo analysis and the cells cultured with the addition of the test compounds at each concentration (test cells) were input into an Excel file, and the percentages of the subMFI values of the test cells at each concentration to the average subMFI value of control cells were calculated. The regression line was determined from the percentages of the subMFI values of the test cells at each concentration by the method of least squares to calculate the 50% PD-L1 expression inhibition concentration (IC50 value) of each compound.

IC50 | Compound
1200 nM | O=C(Nc1ccc(Oc2ccc(C(F)(F)F)cc2)cc1)C1CCCN(C(=O)c2ccc([N+](=O)[O-])cc2)C1 (stereo not shown) [Example 2, 1-(4-Nitrobenzoyl)-N-(4-(4-(trifluoromethyl)phenoxy)phenyl) piperidine-3-carboxamide]
930 nM | COc1cc(C(=O)N2CCCC(C(=O)Nc3ccc(Oc4ccc(C(F)(F)F)cc4)cc3)C2)ccc1O (stereo not shown) [Example 3, 1-(4-Hydroxy-3-methoxybenzoyl)-N-(4-(4-(trifluoromethyl)phenoxy)phenyl)piperidine-3-carboxamide]
670 nM | O=C(Nc1ccc(Oc2ccc(S(F)(F)(F)(F)F)cc2)cc1)C1CCCN(C(=O)c2ccc([N+](=O)[O-])cc2)C1 (stereo not shown) [Example 5, 1-(4-Nitrobenzoyl)-N-(4-(4-(pentafluorosulfanyl)phenoxy)phenyl)piperidine-3-carboxamide]
830 nM | COc1cc(C(=O)N2CCCC(C(=O)Nc3ccc(Oc4ccc(S(F)(F)(F)(F)F)cc4)cc3)C2)ccc1O (stereo not shown) [Example 6, 1-(4-Hydroxy-3-methoxybenzoyl)-N-(4-(4-(pentafluorosulfanyl)phenoxy)phenyl)piperidine-3-carboxamide]

From patent US11591297B2, “Compound having PD-L1 expression-suppressing action” (TOHOKU UNIVERSITY, priority 2019, dated 2023)
